Legend:
MAP-rich tubulin = assay: Tubulin polymerization test procedure with MAP-rich tubulin; type: biochemical, bovine; conditions: MAP-rich tubulin with 1 mM GTP, compound 0.3 μM, at 20 min
Procedure: (§1) Medium is RPMI-1640 with L-glutamine, supplemented with 10% heat-inactivated fetal calf serum, 100 units/mL penicillin, and 100 μg/mL streptomycin (Gibco, Grand Island, N.Y.). Microtubule-associated protein (MAP)-rich tubulin, containing about 70% tubulin and 30% MAPs (#ML113), and highly purified tubulin (>99% pure, #TL238), both from bovine brain, are obtained from Cytoskeleton, Inc., Denver, Colo. PEM buffer (80 mM piperazine-N,N′-bis[2-ethanesulfonic acid], pH 6.9, 1 mM ethylene glycol-bis(β-aminoethyl ether)-N,N,N′,N′-tetraacetic acid, 1 mM magnesium chloride) and guanosine 5′-triphosphate (GTP) are also obtained from Cytoskeleton. [^3H]paclitaxel, specific activity 14.7 Ci/mmol, is purchased from Moravek Biochemicals (Brea, Calif.). [^3H]vinblastine, specific activity 9.60 Ci/mmol and MicroSpin G-50 columns are obtained from Amersham Biosciences (Piscataway, N.J.). […] Other reagents are obtained from Sigma (St. Louis, Mo.).
MAP-rich tubulin is dissolved in ice-cold PEM buffer containing 1 mM GTP (GPEM buffer) at a concentration of 1.3 mg/mL. The solution is centrifuged at top speed in an Eppendorf model 5415C microcentrifuge (Brinkmann Instruments, Westbury, N.Y.) for 10 min at 40 immediately before use. The tubulin solution is added to wells of a ½-area 96-well plate (Costar No. 3696, Corning, Inc., Corning, N.Y.) already containing the compounds of interest. Each compound is tested in duplicate at a final concentration of 0.3 μM in a volume of 110 μL per well. The final DMSO concentration in all wells is 0.3%. Control reactions, which receive compound solvent only, are done in quadruplicate. The plate is put in a SpectraMax Plus plate reader (Molecular Devices Corp. Sunnyvale, Calif.) thermostated at 240 and the absorbance of each well at 340 nm, a measure of the appearance of turbidity due to tubulin polymer formation, is determined every minute for 60 minutes. The absorbance at time 0 for each well is subtracted from each of the subsequent absorbance readings for that well, and then the duplicates are averaged.
In this assay, control reactions with MAP-rich tubulin show an S-shaped absorbance profile characterized by three phases: first, a lag phase during which no change in absorbance occurs; second, a polymerization phase in which absorbance increases; and third, a plateau phase in which absorbance has reached a maximum and little or no further change occurs. Polymerization enhancers such as paclitaxel and docetaxel shorten or eliminate the lag phase, increase the rate of the polymerization phase, and often increase the height of the plateau. […] This has been expressed quantitatively in Table 6 by dividing the mean A340 of each sample at 20 min by the mean A340 of the control at 20 min to give a fold enhancement over control. […]

pure tubulin = assay: Tubulin polymerization test procedure with pure tubulin; type: biochemical, bovine; conditions: pure tubulin without added GTP
Procedure: as §1
The procedure with pure tubulin is similar except for the following changes. […] The supernatant after centrifugation is dispensed to a ½-area 96-well plate already containing compounds. Each compound is tested in duplicate at a final concentration of 24.3 μM. The plate reader μs thermostated at 35°.

HL-60/ADR cells = assay: MTS cytotoxicity test procedure with HL-60/ADR cells; type: cell-based, human; conditions: Homo sapiens, HL60/ADR; MTS assay, HL-60/ADR cells, means of 2 independent experiments
Excerpt: (§2) Human cancer cell lines, unless otherwise noted, are obtained from the American Type Culture Collection (Rockville, Md.). The following drug-sensitive parental cell lines, and their derived drug-resistant counterparts, are obtained from the originators as listed: (a) S1 (parental line from a subclone of human colon carcinoma line LS174T) and derived S1-M1-3.2 (herein called S1-M1) which expresses the MXR drug transporter protein, are provided by Dr. L. Greenberger, Wyeth Research (Rabindran, S. K., He, H., Singh, M., Brown, E., Collins, K. I., Annable, T., and Greenberger, L. M. Reversal of a novel multidrug resistance mechanism in human colon carcinoma cells by fumitremorgin C. Cancer Res., 58: 5850-5858,1998); (b) parental HL-60 human promyelocytic leukemia line and derived HL-60/ADR, which expresses the MRP1 drug transporter protein, are provided by Dr. M. Center, University of Kansas (McGrath, T., and Center, M. S. Adriamycin resistance in HL60 cells in the absence of detectable P-glycoprotein. Biochem. Biophys. […] J. Biol. Chem., 261: 7762-7770, 1986) via Dr. L. Greenberger, Wyeth Research.
(§3) The MTS assay, which is sold in kit form by Promega (Madison, Wis.; CellTiter 96 AQueous Non-Radioactive Cell Proliferation Assay), is based on the conversion by viable cells, but not by dead cells, of the tetrazolium salt, MTS (3-(4,5-dimethylthiazol-2-yl)-5-(3-carboxymethoxyphenyl)-2-(4-sulphophenyl)-2H-tetrazolium, inner salt), into a water-soluble colored formazan which is detected by spectrophotometry. Compounds are tested at nine concentrations, in order to determine IC50 values. For the test procedure, cells are harvested by trypsinization (or, in the case of non-adherent cells, by simple resuspension), washed, counted and distributed to wells of 96-well flat-bottom microtiter plates at 1000 cells per well in 200 μL of medium. In addition, one row of wells on a separate plate receives cells as above (“time 0” plate). All plates are incubated at 370 in humidified 5% CO2 in air for about 24 hr.
(§4) On day 2, compounds for test are diluted and added to wells. Compounds are dissolved in DMSO at 10 mg/mL. For each compound, nine serial 2-fold dilutions are prepared in DMSO. Ten μL of each dilution in DMSO is transferred to 100 μL of medium, mixed well, and then 5 μL of this dilution is transferred in quadruplicate to wells containing cells. […] Plates are returned to the incubator for three days. At the time of drug addition to the experimental plates, the MTS assay is run on the “time 0” plate.
After three days of culture with test compounds (day 5 overall), the MTS assay is done on all wells of the experimental plates. The absorbance values of the quadruplicate sample wells are averaged and divided by the average of the “time 0” values. […] The nine values for each compound are plotted against concentration, and the concentration that produces a relative color yield half way between the maximum and minimum is taken as the IC50 value.
HL-60/ADR cells overexpress the multidrug resistance protein MRP1 which mediates resistance to some chemotherapeutics (Gottesman, M. M., Fojo, T., and Bates, S. E. Multidrug resistance in cancer: role of ATP-dependent transporters. Nature Rev. Cancer, 2: 48-58, 2002). The IC50 values of example 6 of this invention, as well as reference compounds, on HL-60/ADR are compared to values on the sensitive parental HL-60 line.

S1-M1 cells = assay: MTS cytotoxicity test procedure with S1-M1 cells; type: cell-based, human; conditions: Homo sapiens; MTS assay, S1-M1 cells, means of 2 independent experiments
Excerpt: as §2, §3, §4
(§5) After three days of culture with test compounds (day 5 overall), the MTS assay is done on all wells of the experimental plates. The absorbance values of the quadruplicate sample wells are averaged and divided by the average of the “time 0” values. […]

COLO 205 cells = assay: MTS cytotoxicity test procedure with COLO 205 cells; type: cell-based; conditions: Homo sapiens, 72 h, MTS assay, three days of culture
Procedure: as §3
On day 2, compounds for test are diluted and added to wells. Compounds are dissolved in DMSO at 10 mg/mL. For each compound, nine serial 2-fold dilutions are prepared in DMSO. Ten μL of each dilution in DMSO is transferred to 100 μL of medium, mixed well, and then 5 μL of this dilution is transferred in quadruplicate to wells containing cells. The final high concentration of each compound is typically 1-5 μM. Plates are returned to the incubator for three days. At the time of drug addition to the experimental plates, the MTS assay is run on the “time 0” plate. This gives the “time 0 MTS value” which is related to the number of viable cells per well at the time of drug addition.
After three days of culture with test compounds (day 5 overall), the MTS assay is done on all wells of the experimental plates. The absorbance values of the quadruplicate sample wells are averaged and divided by the average of the “time 0” values. The average of control wells without drug, divided by the average “time 0” value, gives the maximal relative increase in MTS color yield due to cell growth during the final three days of culture. The average of control wells with high drug concentration, divided by the “time 0” value, gives the minimal relative color yield for cells that were completely killed. The nine values for each compound are plotted against concentration, and the concentration that produces a relative color yield half way between the maximum and minimum is taken as the IC50 value.
COLO 205 is a human colon carcinoma cell line that is used for comparative testing of the examples of this invention and several reference compounds (Table 1). This line is sensitive to paclitaxel and vincristine.

KB-V1 cells = assay: MTS cytotoxicity test procedure with KB-V1 cells; type: cell-based, human; conditions: Homo sapiens, KB-V1; MTS assay, KB VI cells, means of 2 independent experiments
Excerpt: as §2
The MTS assay, which is sold in kit form by Promega (Madison, Wis.; CellTiter 96 AQueous Non-Radioactive Cell Proliferation Assay), is based on the conversion by viable cells, but not by dead cells, of the tetrazolium salt, MTS (3-(4,5-dimethylthiazol-2-yl)-5-(3-carboxymethoxyphenyl)-2-(4-sulphophenyl)-2H-tetrazolium, inner salt), into a water-soluble colored formazan which is detected by spectrophotometry. Compounds are tested at nine concentrations, in order to determine IC50 values. For the test procedure, cells are harvested by trypsinization (or, in the case of non-adherent cells, by simple resuspension), washed, counted and distributed to wells of 96-well flat-bottom microtiter plates at 1000 cells per well in 200 μL of medium. […]
as §5

For CC(=O)O[C@@]12CO[C@@H]1C[C@H](O)[C@@]1(C)C(=O)[C@H](O)C3=C(C)[C@@H](OC(=O)[C@H](O)[C@@H](NC(=O)OC(C)(C)C)c4ccccc4)C[C@@](O)([C@@H](OC(=O)c4ccccc4)[C@H]21)C3(C)C [Docetaxel, reference compound], the “A340 Compound / A340 Control (fold enhancement over control)” value (MAP-rich tubulin) was 5.4 and the “polymerization of pure tubulin without GTP (in words)” value (pure tubulin) was “able to induce polymerization”.
For COc1cccc2c1C(=O)c1c(O)c3c(c(O)c1C2=O)C[C@@](O)(C(=O)CO)C[C@@H]3O[C@H]1C[C@H](N)[C@H](O)[C@H](C)O1 [Doxorubicin, reference compound], the IC50 (HL-60/ADR cells) was 2080 nM and the IC50 (S1-M1 cells) was 2520 nM.
Work on Fc1cc(F)c(-c2c(Cl)nc3nccn3c2N2CCCCCC2)c(F)c1 [Example 1, 5-azepan-1-yl-7-chloro-6-(2,4,6-trifluorophenyl)imidazo[1,2-a]pyrimidine] yielded an IC50 (COLO 205 cells) of 259 nM and a melting point of 106 to 108 °C.
Fc1cc(F)c(-c2c(Cl)nc3nccn3c2N2CCCCC2)c(F)c1 [Example 2, 7-Chloro-5-piperidin-1-yl-6-(2,4,6-trifluorophenyl)imidazo[1,2-a]pyrimidine] showed an IC50 (COLO 205 cells) of 396 nM.
For Fc1cc(F)c(-c2c(Cl)nc3nccn3c2NCC(F)(F)F)c(F)c1 [Example 3, 7-chloro-N-(2,2,2-trifluoroethyl)-6-(2,4,6-trifluorophenyl)imidazo[1,2-a]pyrimidin-5-amine], the IC50 (COLO 205 cells) was 742 nM and the melting point was 155 to 157 °C.
Compound Fc1cc(F)c(-c2c(Cl)nc3nccn3c2C2CCCCCC2)c(F)c1 [Example 5, 7-Chloro-5-cycloheptyl-6-(2,4,6-trifluorophenyl)imidazo[1,2-a]pyrimidine] has an IC50 (COLO 205 cells) of 207 nM.
With O=C1c2c(O)ccc(O)c2C(=O)c2c(NCCNCCO)ccc(NCCNCCO)c21 [Mitoxantrone, reference compound] the IC50 (HL-60/ADR cells) was 161 nM and the IC50 (KB-V1 cells) was 1930 nM.

From patent publication US7285555B2, “6-aryl-7-halo-imidazo[1,2-a]pyrimidines as anticancer agents” (Wyeth Holdings Corporation, priority 2003, dated 2007)
